Source: patent publication US8067175B2, “Methods and compositions for detecting a drug resistant EGFR mutant” (priority 2005, dated 2011)

Tested on: lung adenocarcinoma
Experiment: Case reports of patients treated with gefitinib or erlotinib

SMILES	CT scan response of bilateral nodules (patient 2, 150 mg daily, 4 mo after treatment)	adverse effect leading to dose decrease (patient 2, after 14 mo of therapy, dose decreased to 100 mg daily)	disease outcome (patient 2, after 25 mo of treatment)	chest radiograph response (patient 1, 250 mg daily, 2 wk after start)	chest radiograph outcome (patient 1, nine mo later)	disease outcome on adjuvant treatment (patient 3, after three mo)
C#Cc1cccc(Nc2ncnc3cc(OCCOC)c(OCCOC)cc23)c1 [erlotinib]	markedly reduced in number and size	fatigue	the disease progressed within the lung	–	–	–
COc1cc2ncnc(Nc3ccc(F)c(Cl)c3)c2cc1OCCCN1CCOCC1 [gefitinib]	–	–	–	dramatic improvement	progression of disease	developed a new left-sided malignant pleural effusion
